Laboratory results reported in patent publication US6914045B2, “Glycopeptide antibiotics” (Wyeth Holdings Corporation, priority 2001, dated 2005).
Values after ≈ are worked out from the molar mass of the structure shown.

How the values were obtained:
Assay in all cases: in vitro antibacterial evaluation, MIC by broth dilution
Assay type in all cases: cell-based
Enterococcus sp. = settings: broth dilution, 18 hours at 35° C.
Outline: (§1)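 Broth dilution per NCCLS M7-A2 in Mueller-Hinton II medium, inoculum 5×10^5 CFU/mL, antibiotic range 64-0.06 μg/mL. MIC taken as lowest concentration inhibiting growth; Gram-positive panel includes recent clinical isolates resistant to methicillin, penicillin and/or vancomycin.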

Staphylococcus sp. = settings: broth dilution, 18 hours at 35° C.
Outline: as §1

Streptococcus sp. = settings: broth dilution, 18 hours at 35° C.
Outline: as §1

Escherichia coli = settings: 18 hours at 35° C.

SMILES: CC(c1ccccc1)C1NC(=O)CNC(=O)C(CO)NC(=O)C(C(O)C2CNC(=N)N2C2OC(CO)C(O)C(O)C2O)NC(=O)C(C(O)C2CNC(=N)N2)NC(=O)C(Cc2ccc(OC3OC(CO)C(OC4OC(CO)C(OCC=Cc5ccc(N(C)C)cc5)C(O)C4O)C(O)C3O)cc2)NC1=O (stereo not shown) [Example 243a]
- MIC Enterococcus avium (GC 4558) (Enterococcus sp.): 16 µg/mL (≈ 11 µM)
- MIC Enterococcus faecalis (ATCC 29212) (Enterococcus sp.): 32 µg/mL (≈ 22 µM)
- MIC Enterococcus faecalis (GC 2242) (Enterococcus sp.): 32 µg/mL (≈ 22 µM)
- MIC Enterococcus faecalis (GC 2691) (Enterococcus sp.): 32 µg/mL (≈ 22 µM)
- MIC Enterococcus faecalis (GC 3059) (Enterococcus sp.): 32 µg/mL (≈ 22 µM)
- MIC Enterococcus faecalis (GC 4552) (Enterococcus sp.): 32 µg/mL (≈ 22 µM)
- MIC Enterococcus faecalis (GC 4553) (Enterococcus sp.): 32 µg/mL (≈ 22 µM)
- MIC Enterococcus faecalis (GC 4554) (Enterococcus sp.): 32 µg/mL (≈ 22 µM)
- MIC Enterococcus faecalis (GC 6189) (Enterococcus sp.): 32 µg/mL (≈ 22 µM)
- MIC Enterococcus faecium (GC 2243) (Enterococcus sp.): 32 µg/mL (≈ 22 µM)
- MIC Enterococcus faecium (GC 4556) (Enterococcus sp.): 32 µg/mL (≈ 22 µM)
- MIC Enterococcus faecium (GC 4557) (Enterococcus sp.): 16 µg/mL (≈ 11 µM)
- MIC Enterococcus faecalis (ATCC 29212) (Enterococcus sp.; strain ATCC 29212): 32 µg/mL (≈ 22 µM)
- MIC Enterococcus faecium (GC 2243) (Enterococcus sp.; strain GC 2243): 32 µg/mL (≈ 22 µM)
- MIC Enterococcus faecalis (GC 4552) (Enterococcus sp.; strain GC 4552): 32 µg/mL (≈ 22 µM)
- MIC Enterococcus faecalis (GC 4553) (Enterococcus sp.; strain GC 4553): 32 µg/mL (≈ 22 µM)
- MIC Enterococcus faecalis (GC 4554) (Enterococcus sp.; strain GC 4554): 32 µg/mL (≈ 22 µM)
- MIC Enterococcus faecium (GC 4556) (Enterococcus sp.; strain GC 4556): 32 µg/mL (≈ 22 µM)
- MIC Enterococcus faecium (GC 4557) (Enterococcus sp.; strain GC 4557): 16 µg/mL (≈ 11 µM)
- MIC Enterococcus avium (GC 4558) (Enterococcus sp.; strain GC 4558): 16 µg/mL (≈ 11 µM)
- MIC Enterococcus faecalis (GC 6189) (Enterococcus sp.; strain GC 6189): 32 µg/mL (≈ 22 µM)
- MIC Enterococcus faecalis (GC 2242) (Enterococcus sp.; inoculum 5×10^5 CFU/mL, strain GC 2242): 32 µg/mL (≈ 22 µM)
- MIC Enterococcus faecalis (GC 2691) (Enterococcus sp.; inoculum 5×10^5 CFU/mL, strain GC 2691): 32 µg/mL (≈ 22 µM)
- MIC Enterococcus faecalis (GC 3059) (Enterococcus sp.; inoculum 5×10^5 CFU/mL, strain GC 3059): 32 µg/mL (≈ 22 µM)
- MIC Coagulase Negative Staphylococcus (GC 4547) (Staphylococcus sp.): 32 µg/mL (≈ 22 µM)
- MIC Coagulase Negative Staphylococcus (GC 4548) (Staphylococcus sp.): 32 µg/mL (≈ 22 µM)
- MIC Coagulase Negative Staphylococcus (GC 4549) (Staphylococcus sp.): 16 µg/mL (≈ 11 µM)
- MIC Coagulase Negative Staphylococcus (GC 4551) (Staphylococcus sp.): 32 µg/mL (≈ 22 µM)
- MIC Coagulase Negative Staphylococcus (GC 6257) (Staphylococcus sp.): 16 µg/mL (≈ 11 µM)
- MIC Staphylococcus aureus (ATCC 29213) (Staphylococcus sp.): 32 µg/mL (≈ 22 µM)
- MIC Staphylococcus aureus (GC 1131) (Staphylococcus sp.): 32 µg/mL (≈ 22 µM)
- MIC Staphylococcus aureus (GC 3051) (Staphylococcus sp.): 32 µg/mL (≈ 22 µM)
- MIC Staphylococcus aureus (GC 3053) (Staphylococcus sp.): 32 µg/mL (≈ 22 µM)
- MIC Staphylococcus aureus (GC 4541) (Staphylococcus sp.): 32 µg/mL (≈ 22 µM)
- MIC Staphylococcus aureus (GC 4542) (Staphylococcus sp.): 32 µg/mL (≈ 22 µM)
- MIC Staphylococcus aureus (GC 4544) (Staphylococcus sp.): 32 µg/mL (≈ 22 µM)
- MIC Staphylococcus aureus (GC 4545) (Staphylococcus sp.): 32 µg/mL (≈ 22 µM)
- MIC Staphylococcus aureus-SMITH (GC 4543) (Staphylococcus sp.): 32 µg/mL (≈ 22 µM)
- MIC Staphylococcus haemolyticus (GC 4546) (Staphylococcus sp.): 32 µg/mL (≈ 22 µM)
- MIC Staphylococcus aureus (ATCC 29213) (Staphylococcus sp.; strain ATCC 29213): 32 µg/mL (≈ 22 µM)
- MIC Staphylococcus aureus (GC 1131) (Staphylococcus sp.; strain GC 1131): 32 µg/mL (≈ 22 µM)
- MIC Staphylococcus aureus (GC 3051) (Staphylococcus sp.; strain GC 3051): 32 µg/mL (≈ 22 µM)
- MIC Staphylococcus aureus (GC 3053) (Staphylococcus sp.; strain GC 3053): 32 µg/mL (≈ 22 µM)
- MIC Staphylococcus aureus (GC 4541) (Staphylococcus sp.; strain GC 4541): 32 µg/mL (≈ 22 µM)
- MIC Staphylococcus aureus (GC 4542) (Staphylococcus sp.; strain GC 4542): 32 µg/mL (≈ 22 µM)
- MIC Staphylococcus aureus-SMITH (GC 4543) (Staphylococcus sp.; strain GC 4543): 32 µg/mL (≈ 22 µM)
- MIC Staphylococcus aureus (GC 4544) (Staphylococcus sp.; strain GC 4544): 32 µg/mL (≈ 22 µM)
- MIC Staphylococcus aureus (GC 4545) (Staphylococcus sp.; strain GC 4545): 32 µg/mL (≈ 22 µM)
- MIC Staphylococcus haemolyticus (GC 4546) (Staphylococcus sp.; strain GC 4546): 32 µg/mL (≈ 22 µM)
- MIC Coagulase Negative Staphylococcus (GC 4547) (Staphylococcus sp.; strain GC 4547): 32 µg/mL (≈ 22 µM)
- MIC Coagulase Negative Staphylococcus (GC 4548) (Staphylococcus sp.; strain GC 4548): 32 µg/mL (≈ 22 µM)
- MIC Coagulase Negative Staphylococcus (GC 4549) (Staphylococcus sp.; strain GC 4549): 16 µg/mL (≈ 11 µM)
- MIC Coagulase Negative Staphylococcus (GC 4551) (Staphylococcus sp.; strain GC 4551): 32 µg/mL (≈ 22 µM)
- MIC Coagulase Negative Staphylococcus (GC 6257) (Staphylococcus sp.; strain GC 6257): 16 µg/mL (≈ 11 µM)
- MIC Streptococcus agalactiae (GC 4564) (Streptococcus sp.): 16 µg/mL (≈ 11 µM)
- MIC Streptococcus pneumoniae (ATCC 6301) (Streptococcus sp.): 16 µg/mL (≈ 11 µM)
- MIC Streptococcus pneumoniae (GC 1894) (Streptococcus sp.): 1 µg/mL (≈ 0.688 µM)
- MIC Streptococcus pneumoniae (GC 4565) (Streptococcus sp.): 2 µg/mL (≈ 1.38 µM)
- MIC Streptococcus pyogenes (GC 4563) (Streptococcus sp.): 8 µg/mL (≈ 5.5 µM)
- MIC Streptococcus pneumoniae (ATCC 6301) (Streptococcus sp.; inoculum 5×10^5 CFU/mL, strain ATCC 6301): 16 µg/mL (≈ 11 µM)
- MIC Streptococcus pneumoniae (GC 1894) (Streptococcus sp.; inoculum 5×10^5 CFU/mL, strain GC 1894): 1 µg/mL (≈ 0.688 µM)
- MIC Streptococcus pyogenes (GC 4563) (Streptococcus sp.; inoculum 5×10^5 CFU/mL, strain GC 4563): 8 µg/mL (≈ 5.5 µM)
- MIC Streptococcus agalactiae (GC 4564) (Streptococcus sp.; inoculum 5×10^5 CFU/mL, strain GC 4564): 16 µg/mL (≈ 11 µM)
- MIC Streptococcus pneumoniae (GC 4565) (Streptococcus sp.; inoculum 5×10^5 CFU/mL, strain GC 4565): 2 µg/mL (≈ 1.38 µM)
- MIC Escherichia coli (ATCC 25922) (Escherichia coli): >64 µg/mL
- MIC Escherichia coli (GC 4559) (Escherichia coli): >64 µg/mL
- MIC Escherichia coli (GC 4560) (Escherichia coli): 32 µg/mL (≈ 22 µM)
